Laboratory results reported in EP0573883A1, “Utilization of 3 substituted aryl-5-alkyl-isoxazole-4-carboxylic acid derivatives against endoparasites new 3-substituted aryl-5-alkyl-isoxazole-4-carboxylic acid derivatives and process for their preparation” (BAYER AG, priority 1992, dated 1993).

Experiments:
[1] = system: Trichostrongylus colubriformis; experiment: In vivo nematode test, Trichostrongylus colubriformis / sheep (faecal egg count before and after treatment); details: experimentally infected sheep (Schaf), treated after the prepatent period, pure active substance in gelatin capsules, oral, dose giving complete cessation of egg excretion, read-out: Dosis effectiva
From the text: Trichostrongylus colubriformis / Schaf
Experimentell mit Trichostrongylus colubriformis infizierte Schafe wurden nach Ablauf der Präpatenzzeit des Parasiten behandelt. Die Wirkstoffe wurden als reiner Wirkstoff in Gelatinekapseln oral appliziert.
(§1) Der Wirkungsgrad wird dadurch bestimmt, daß man die mit dem Kot ausgeschiedenen Wurmeier vor und nach der Behandlung quantitativ auszählt.
(§2) Ein völliges Sistieren der Eiausscheidung nach der Behandlung bedeutet, daß die Würmer abgetrieben wurden oder so geschädigt sind, daß sie keine Eier mehr produzieren (Dosis effectiva).
(§3) Geprüfte Wirkstoffe und wirksame Dosierungen (Dosis effectiva) sind aus der nachfolgenden Tabelle ersichtlich.

Haemonchus contortus = experiment: In vivo nematode test, Haemonchus contortus / sheep (faecal egg count before and after treatment); details: experimentally infected sheep (Schaf), treated after the prepatent period, pure active substance in gelatin capsules, oral, dose giving complete cessation of egg excretion, read-out: Dosis effectiva
From the text: Haemonchus contortus / Schaf
Experimentell mit Haemonchus contortus infizierte Schafe wurden nach Ablauf der Präpatenzzeit des Parasiten behandelt. Die Wirkstoffe wurden als reiner Wirkstoff in Gelatinekapseln oral appliziert.
as §1, §2, §3

Row | SMILES | minimal effective dose [1] [mg/kg] | minimal effective dose (Haemonchus contortus) [mg/kg]
1 | CCCCCCCCCCCCCCCCCCNC(=O)c1c(-c2c(Cl)cccc2Cl)noc1CC [Beispiel 1, N-Oktadecyl-3-(2,6-dichlor-phenyl)-5-ethyl-isoxazol-4-carbonsäureamid] | 10 | 5
2 | Cc1ccc(OC(=O)c2c(-c3c(Cl)cccc3Cl)noc2C)cc1 [Beispiel 59] | 5 | 10
3 | Cc1onc(-c2c(Cl)cccc2Cl)c1C(=O)Oc1ccc(Cl)cc1 [Beispiel 62] | 10 | 10
4 | CCCCCCCCCCCCCCCCCCNC(=O)c1c(-c2c(Cl)cccc2Cl)noc1C [Beispiel 83] | 10 | 10
5 | Cc1onc(-c2c(Cl)cccc2Cl)c1C(=O)Nc1cc(F)cc(F)c1 [Beispiel 103] |  | 10
6 | Cc1ccccc1NC(=O)c1c(-c2c(Cl)cccc2Cl)noc1C [Beispiel 116] | 5 | 10
7 | Cc1ccc(NC(=O)c2c(-c3c(Cl)cccc3Cl)noc2C)cc1 [Beispiel 119] | 10 | 5
8 | CCc1onc(-c2c(Cl)cccc2Cl)c1C(=O)Nc1ccc(SC(F)(F)F)cc1 [Beispiel 127] | 5 | 10
9 | Cc1ccccc1NC(=O)c1c(-c2c(F)cccc2Cl)noc1C [Beispiel 221] |  | 5
10 | Cc1onc(-c2c(F)cccc2Cl)c1C(=O)Nc1ccc(Cl)cc1F [Beispiel 230] | 5 | 10
